In one series the test system is MeV N gene RNA. As to the kind of experiment: Quantitative RT-PCR of MeV N-gene RNA in lymph nodes. It is filed as in vivo. The settings on record: for MeV N-gene RNA levels in lymph nodes versus untreated: 21 days post-infection. The protocol: Organs (21 days post-infection) and PBMCs (twice a week) were frozen in RNAlater (Qiagen) at −80 °C until further processing. For the deceased animal, organs were frozen in RNAlater at the day of death. Lymph nodes were thawed on ice, transferred to TRIzol (ambion life technologies) and homogenized using a tissue homogenizer. Total RNA of lymph nodes and PBMCs was extracted following the TRIzol manufacturer’s protocol. RNA (1000 ng for lymph nodes; 110 ng for PBMCs) was then subjected to reverse transcription using random hexamer primers and Superscript III reverse transcriptase in accordance with the manufacturer’s protocols. Subsequent quantitative PCR (qPCR) was carried out using primer pairs specific for a fragment in the MeV N gene[23] or GAPDH gene(Supplementary Table 2) and the PowerUp SYBR Green Master Mix (Thermo Fisher Scientific) in an Applied Biosystems 7500 Real-Time PCR system. Samples were normalized for GAPDH. The comparative (ΔΔCt) Ct method was applied to determine relative amounts of N-encoding RNA present in samples from treated animals compared to those obtained from untreated control animals (lymph nodes) or compared to those obtained from untreated control animals on day 7 post-infection (peak PBMC virus titer).

Series [1] has as its system MV/FrankfurtMain.DEU/17.11 (genotype D8). As to the kind of experiment: Clinical signs (rash score) in MeV-infected squirrel monkeys. The settings on record: for animals that developed spots or mild rash in the face or inguinal region: 50 mg/kg b.i.d. 14 days. As to the method:
All animal experiments were carried out in compliance with the regulations of German animal protection laws and authorized by the Regierungspräsidium Darmstadt, Germany (Dezernat V54 – Veterinärwesen und Verbraucherschutz, Hilpertstrasse 31, 64295 Darmstadt). Adult male and female squirrel monkeys (Saimiri sciureus) were obtained from BioPRIM, 31450 Baziege, or CNRS 0846 Primatologie, 13790 Rousset, France. Each experimental group was housed in a separate room, and animals of the same sex were caged together within the respective groups. For the single-dose pharmacokinetic experiment, animals were anesthetized, and the drug was given through a stomach tube at a concentration of 50 mg/kg bodyweight. Blood samples were collected after 15, 30, and 60 min, and 2, 3, 6, and 24 h. For efficacy assessment, groups of 6 animals were left untreated or treated with 50 mg/kg of ERDRP-0519 twice daily for two weeks, starting either 12 h before or 3 or 7 days after intranasal infection with 10^6 TCID50 of MV/FrankfurtMain.DEU/17.11. Clinical signs, rectal temperature, and weight were recorded daily, and throat swabs and blood samples were collected before infection and twice weekly thereafter. On day 21 post-infection, the animals were euthanized, necropsied, and samples were collected for histological analysis.

The subject of series [2] is canine distemper virus (CDV). The settings on record: lethal CDV-ferret model; cited from earlier work.

“And” between values parts separate entries of the source, which are not always exact repeats. Equal entries are not always repeated.

The values that follow come from paper PMC8413292, “Small-molecule polymerase inhibitor protects non-human primates from measles and reduces shedding” (Nature Communications, 2021).

In the case of `Cn1nc(C(F)(F)F)cc1C(=O)Nc1ccc(S(=O)(=O)N2CCCC[C@H]2CCN2CCOCC2)cc1` [ERDRP-0519], the “Lymph node fold difference, group mean (Mean 2)” value with MeV N gene RNA (prophylactic) worked out at 0.06859; with MeV N gene RNA (therapeutic (d3)), 0.1137; in the series with MeV N gene RNA (therapeutic (d7)) it was 0.7008. Besides, the “fold difference (Lymph node MeV N RNA), individual animals” value with MeV N gene RNA (prophylactic) is 0.002631 and 0.0102 and 0.1018 and 0.01292 and 0.2776 and 0.00638; with MeV N gene RNA (therapeutic (d3)), 0.5644 and 0.005805 and 0.02288 and 0.01111 and 0.0007117 and 0.07727; in the series on MeV N gene RNA (therapeutic (d7)), 1.441 and 0.8274 and 0.2474 and 0.8349 and 0.2786 and 0.5749. In addition, the “MeV N-gene RNA levels in lymph nodes versus untreated” value was “significantly decreased” with MeV N gene RNA (prophylactic group, p = 0.0295) and “significantly decreased” in the series on MeV N gene RNA (therapeutic day 3 group, p = 0.0346). For the same compound, the “Lymph node fold difference, Mean Diff,” value is reported as 1.828 with MeV N gene RNA (untreated vs. prophylactic), 1.783 in the series with MeV N gene RNA (untreated vs. therapeutic (d3)) and 1.196 with MeV N gene RNA (untreated vs. therapeutic (d7)). The “severe or generalized rash” value in series [1] (all treated groups) is recorded as “none of the treated animals experienced severe or generalized rash”. For the same compound, the “animals that developed spots or mild rash in the face or inguinal region” value is listed as “Four of six animals” in series [1] (day 3 therapeutic group) and “all animals” in series [1] (day 7 therapeutic group). The “deaths during the study” value in series [1] (day 3 therapeutic group, day 15 post-infection, authors conclude unrelated to drug or MeV) is “One animal in the day 3 therapeutic group developed mild diarrhea and deceased”. In addition, the measles-typical clinical signs entry in series [1] (prophylactic group, 50 mg/kg b.i.d. 14 days from 12 h prior to infection) was “remained free of measles-typical clinical signs”. For the same compound, in series [2], the “survival after post-exposure therapeutic dosing” value was “complete survival of all treated animals”.
